Data: a melting point compilation (Tetko et al.; mined from patent text by program, amines drawn as free bases though some values may be those of a salt)

| Compound | melting point |
| --- | --- |
| CN1CCN(c2cc3ccccc3cn2)CC1 | 93 to 94 °C |
| Cc1cccc(C)c1OCC1CN=C(N)O1 (stereo unspecified) | 114 °C |
| O=C(O)[C@@H]1Cc2ncn(Cc3ccccc3)c2CN1C(=O)c1ccccc1 | 233 to 235 °C |
| CC(=O)N1CCN(c2cccc(O)c2)CC1 | 186 °C |
| CCOC=Nc1ccc2nnc(-c3ncc([N+](=O)[O-])n3C)n2n1 | 134 to 135 °C |
| CC(C)(C)[Si](C)(C)OCCn1ccc([N+](=O)[O-])n1 | 76 to 77 °C |
| OCC(Br)c1ccccc1 (stereo unspecified) | 38 to 39 °C |
| CC(C)(C)c1nc(-c2nn(-c3ccc(F)cc3F)c3c2C2CCC3C2)no1 (stereo unspecified) | 119 to 121 °C |
| CS(=O)(=O)c1ccc(-n2cc(COCc3ccccc3)nc2-c2ccc(Cl)cc2)cc1 | 64 to 65 °C |
| Clc1cc(Cl)cc(NCNc2cc(Cl)cc(Cl)c2)c1 | 153 to 156 °C |
| CCC(CNC(=O)c1ccc(C(F)(F)F)c(NC(C)=O)c1)OC(C)=O (stereo unspecified) | 121 °C |
| CON=C1CCCc2cc(C(=O)OC)c(C)nc21 | 124 to 125 °C |
| O=C1NCCc2ccc(OCCCCN3CCN(c4cccc5c4OCCCO5)CC3)nc2N1 | 78 to 79 °C |
| Cc1nc2c(S(N)(=O)=O)cccc2s1 | 236 to 239 °C |
| CN(C)C(=O)N[C@H]1CC[C@H](CCN2CCN(c3nccc4c3CCO4)CC2)CC1 | 260 °C |
| NC(=NO)c1ccc(Cn2ccc(OCc3ccccc3)c(Br)c2=O)cc1 | 210 to 212 °C |
| N#Cc1ccc(-c2ccc(-c3ccc(C#N)cc3)cc2)cc1 | 299 to 300 °C |
| CC(C)(C#N)c1cc(C(O)c2cccnc2)cc(C(C)(C)C#N)c1 (stereo unspecified) | 117 to 120 °C |
| c1cc2c3c(cccc3c1)C(NCCCCn1ccnc1)=N2 | 225 to 230 °C |
| CC1=C(C#N)C(c2cccc([N+](=O)[O-])c2)C2=C(CCCC2=O)N1 (stereo unspecified) | 214 to 216 °C |
| COc1cc(O)c2c(=O)c(OC(C)C)c(-c3ccc(O)c(OC)c3)oc2c1 | 169 to 171 °C |
| COc1cc(NS(=O)(=O)CCCCl)cc(OC)c1 | 68 to 71 °C |
| CCCCCc1c(C(C)C)nc(C(C)C)c(C(O)CCCC)c1-c1ccc(F)cc1 (stereo unspecified) | 66 to 68 °C |
| CCCC(=O)Nc1ccc(O)c(-c2ccno2)c1 | 238 °C |
| N=C(Nc1nc(-c2ccccn2)nc2ccccc12)C(F)(F)F | 189 °C |
| CCOC(=O)C1=C(C)NC(C)=C(C(=O)OCC)C1c1ccccc1/C=C/C(=O)OC1CCCCC1 | 175 to 177 °C |

| Compound | melting point |
| --- | --- |
| COc1cc2sc(C3=NNC(=O)CC3C)cc2cc1OCCCN1CCCCC1 (stereo unspecified) | 198 to 200 °C |
| Cc1cccc(-c2ccc3c(c2)c2c(n3Cc3ccccc3)COC(=O)C2=O)c1 | 225 to 226 °C |
| COc1ccc2c(c1N)CN(S(C)(=O)=O)CC(=O)N2 | 232 to 233 °C |
| COC(=O)C=C1Oc2ccccc2Oc2ccccc21 | 81 to 83 °C |
| CC(=O)NCCC1CCc2ccc3nc(C4CC4)oc3c21 (stereo unspecified) | 92 to 95 °C |
| CC(C)CCC1C(=O)N(c2c(F)c(F)nc(F)c2F)S(=O)(=O)N1C (stereo unspecified) | 80.5 to 81.5 °C |
| NC(=NO)c1ncn2c1[C@@H]1CCN1C(=O)c1c(Br)cccc1-2 | 265 to 266 °C |
| CSc1nnnc2c1sc1nc(C)ccc12 | 197 to 198 °C |
| C=C1CC2(CC)C(=O)CC(O)C2C2CCC3=CC(=O)CCC3C12 (stereo unspecified) | 228 °C |
| CC(C)(C)Nc1nc2cc(CC(=O)O)ccc2o1 | 175 to 176 °C |
| CC(=NOCCOc1ccc(CC2OC(=O)NC2=O)cc1)c1ccc(-c2ccccc2)cc1 (stereo unspecified) | 177 to 179 °C |
| CC(C)(C)OC(=O)NC(CC(=O)OCc1ccccc1)C(=O)C(C#N)=P(c1ccccc1)(c1ccccc1)c1ccccc1 (stereo unspecified) | 42 to 44 °C |
| Cn1cc(-c2cc(-c3cnc4c(c3)CCC(=O)N4)ccn2)n(-c2ccc(C(C)(C)C#N)cc2)c1=O | 284 °C |
| O=C(O)CCc1cc(-c2ccc(Cl)cc2)n(-c2ccccc2)n1 | 138 to 139 °C |
| NC(N)=NC(=O)Cc1c(-c2ccccc2Cl)csc1-c1ccc(Oc2ccccc2)cc1 | 76 to 78 °C |
| CCN(CC)CCCNC(=O)Cn1ncc(-c2ccc(Cl)cc2)c1-c1ccccc1 | 104 to 105 °C |
| COC(=O)CCCc1cc2nc(Cl)ccc2n1S(=O)(=O)c1ccc(OC)cc1Cl | 116 to 118 °C |
| Cc1ccc(Nc2c([N+](=O)[O-])cc(C(=O)O)cc2S(N)(=O)=O)c(C)c1 | 224 to 226 °C |
| Cc1nc(C(O)CNC(C)(C)C)ccc1OCc1ccccc1 (stereo unspecified) | 96 to 97 °C |
| CS(=O)(=O)c1ccc(-n2cc(-c3ccc4ccccc4c3)nc2-c2ccc(Cl)cc2)cc1 | 204 to 206 °C |
| Cc1cc(C(=O)N(C2CCCCC2)C2CCCC2)ccc1Cn1cnc2cccnc21 | 181 to 182 °C |
| CCc1c(OC)cc(OC)c2c1C(=O)N(CSc1nnnn1-c1ccccc1)S2(=O)=O | 162 to 164 °C |
| CN1CC(CN=[N+]=[N-])CC2c3cccc4c3c(cn4C)CC21 (stereo unspecified) | 168 to 169 °C |
| CC(C)c1c(C(=O)c2ccccc2)n(COCc2ccccc2)c(=O)[nH]c1=O | 184 °C |
| COc1ccc(C(=O)N2CCC(N3C(=O)Cc4ccccc43)CC2)c(OC)c1 | 88 to 93 °C |
| CCCCNC(=O)Oc1cccc(NC(=O)CC(C)=O)c1 | 112 °C |

| Compound | melting point |
| --- | --- |
| OC(Cc1ccc(Cl)cc1Cl)n1ccnc1 (stereo unspecified) | 139 to 141 °C |
| CCn1ncc2c(NCC3CCCCC3)c3cc(C(=O)OC)ccc3nc21 | 275 to 277 °C |
| O=C(O)c1cc2cc(OCCc3ccccc3)ccc2[nH]1 | 184 to 187 °C |
| O=C(N[C@@H](Cc1ccccc1)C(=O)O)c1cnccn1 | 166 to 169 °C |
| COc1ccc(C(=O)Nc2ccc(F)c(F)c2)cc1N | 171 to 172 °C |
| CCC(CC)Nc1cc(C)nc(Oc2c(C)cc(C)cc2C)c1CN | 117 to 119 °C |
| N#Cc1cc2c(s1)CCCC2NC=O (stereo unspecified) | 131 to 134 °C |
| C/C=C/CONC(=O)c1nc(-c2ccc(Cl)c(OC)c2F)cc(N)c1Cl | 154 to 156 °C |
| COC(=O)C1=C(C)NC(CC(=O)N2CCN(C3CCCC3)CC2)=C(C(=O)OC)C1c1c(Cl)cccc1Cl (stereo unspecified) | 185 to 195 °C |
| O=C(C=Cc1ccc(CO)cc1)N1CCc2c([nH]c3ccccc23)C1c1ccc2c(c1)OCO2 (stereo unspecified) | 206 °C |
| COc1ccc(-c2ocnc2-c2cc(OC)c(Cl)c(OC)c2)cc1N | 146 to 148 °C |
| Cc1ccc(Cl)c(N)c1C(N)=O | 124 to 128 °C |
| O=C1c2ccccc2C(=O)N1[C@H]1C=C[C@@H](O)CC1 (racemic) | 126 to 129 °C |
| O=C(O)c1nnc2ccc(NCCCN3CCC(OC(c4ccccc4)c4ccccc4)CC3)nn12 | 102 to 104 °C |
| CC(C)(C)OC(=O)N[C@@H](Cc1ccc(O)c(O)c1)C(=O)O | 148 °C |
| O=C(Nc1ccccc1OCc1ccccc1)c1nnnn1Cc1ccccc1 | 140 to 142 °C |
| CCOC(=O)C1=Cc2cc(C(F)F)ccc2OC1C(F)(F)F (stereo unspecified) | 135 to 136 °C |
| Cn1nc(S(N)(=O)=O)c2c(F)cccc21 | 221 to 223 °C |
| CC(C)(C)OC(=O)N1CCCC[C@@H]1[C@H](CO)c1ccc(Br)cc1 | 117 to 118 °C |
| COC(=O)N1CCC(=C2c3ccccc3CCc3cccnc32)CC1 | 116 to 118 °C |
| CC1(C)CC(=O)c2c(Sc3ncccn3)sc(-c3cc[nH]n3)c2C1 | 245 °C |
| Cc1cccc2c1CCc1ccccc1C2(O)CCCN=Cc1ccccc1 (stereo unspecified) | 130 to 131 °C |
| C#CC[C@H](c1nc2cc(Cl)ccc2c(=O)n1Nc1ccccc1)N(CCCN)C(=O)c1ccc(C)cc1 | 130 to 133 °C |
| NC(=O)CNC(=O)c1cncc(-c2cccc3cc(Cc4cccc(C(F)(F)F)c4)sc23)c1 | 122 to 123 °C |
| CCOC(=O)c1c(C(=O)O)ccc(OC)c1OC | 148 to 149 °C |
| CC(C)c1ccc(C2=C(c3ccc(S(C)(=O)=O)cc3)OC3(CCCC3)C2=O)cc1 | 139 to 140 °C |

| Compound | melting point |
| --- | --- |
| O=C(Cc1cc2ccccc2[nH]1)Nc1ccc(-n2nc(C(F)(F)F)cc2C(F)(F)F)cc1 | 176 to 178 °C |
| CC(=O)NCc1ccc(CN2CCN(c3ccc(F)cc3[N+](=O)[O-])CC2)cc1 | 94.5 to 96 °C |
| O=C(NCCCCCCCCCCCCOC(=O)Oc1ccc([N+](=O)[O-])cc1)OC1CCN(C(=O)Oc2ccc(Oc3ccccc3)cc2)CC1 | 96 to 98 °C |
| Cn1c(=O)c(-c2ccc(Cl)cc2Cl)cc2c3cc(-c4csc(N)n4)ccc3n(C)c21 | 272 to 273 °C |
| CC(=O)N(C)C1CCc2c([nH]c3ccccc23)C1 (stereo unspecified) | 215 to 216 °C |
| Cc1nc[nH]c1CSCCCNC(=N)N | 156 to 158 °C |
| COC(=O)CCCc1cc2nc(Cl)ccc2n1S(=O)(=O)c1ccc2nc(C)sc2c1 | 117 °C |
| CC(C)(C)C(=O)C(=C1SCCS1)n1cncn1 | 141 °C |
| O=C(OCc1ccc(OCCCc2ccc(Cl)cc2)cc1)c1cccnc1 | 67 to 68 °C |
| COC(=O)c1ccc(OCCCO/N=C/c2cn(Cc3ccccc3)c3ccccc23)cc1O | 100 to 102 °C |
| O=c1cccccc1N1CCN(CCO)CC1 | 85 to 86 °C |
| CCOC(=O)c1c(-c2ccncc2)[nH]c(-c2ccncc2)c1-c1ccccc1 | 99 to 100 °C |
| Cc1nc(-c2cccc(NC(=O)N3CCc4c(cnc5[nH]ncc45)C3)c2)no1 | > 140 °C |
| CC(C)(C)OC(=O)NCCc1ccc([N+](=O)[O-])cc1 | 94 to 95 °C |
| CCOCCNc1nc(C)c(CCO)c(=O)[nH]1 | 172 °C |
| CC(=NO)c1nccc(OCC(F)(F)F)n1 | 179 to 181 °C |
| C/C(=N\OCCOc1ccc(C(=O)O)c(Cl)c1)c1ccc(C(C)(C)C)cc1 | 143 to 144 °C |
| CCC(C)NC(=O)c1ncc(C)cc1C(N)=O (stereo unspecified) | 119 to 123 °C |
| O=C(O)Cc1c(-c2ccccc2)c(=O)[nH]c2cc(Cl)ccc12 | 175 °C |
| CCN(CC(=O)O)Cc1cc(/C(=N\O)c2cccc(Br)c2)ccc1[N+](=O)[O-] | 131 °C |
| CC1CCCC(C)N1Cc1ccc(COc2cccc3c2CN(C2CCC(=O)NC2=O)C3=O)cc1 (stereo unspecified) | 205 to 207 °C |
| COc1ccc(N2CCN(c3c(C)c(C)c4c(c3C)C(O)(Cc3ccccc3)C(C)(C)O4)CC2)cc1 (stereo unspecified) | 152 to 153 °C |
| NCCCCCNc1ncc2ncnc(Nc3ccc(F)c(Cl)c3)c2n1 | 153 to 155 °C |
